Experimental data from ChEMBL document CHEMBL1201862, “PubChem BioAssay data set” (2004).
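Where inhibition never reached the appropriate level, the endpoint shown equals the highest concentration tested. Otherwise, values were interpolated linearly from a five-concentration, 48-hour dose response in 96-well plates. Abbreviation: GI50, concentration required for 50% inhibition of growth.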 Activity calls are given as the source filed them. Rule as the data show it: active = GI50 up to about 1.1 µM and inactive = higher.

Key:
Assay in all cases: NCI anticancer screen, dose series, 48 h
NCI-H226 = test system: NCI-H226
HCC 2998 = test system: HCC 2998
SK-MEL-5 = test system: SK-MEL-5
U-251 = test system: U-251
SK-MEL-2 = test system: SK-MEL-2
MOLT-4 = test system: MOLT-4
TK-10 = test system: TK-10
UACC-257 = test system: UACC-257
MCF7 = test system: MCF7
HT-29 = test system: HT-29
SR = test system: SR
A549 = test system: A549
SK-OV-3 = test system: SK-OV-3
PC-3 = test system: PC-3
Hs-578T = test system: Hs-578T
UACC-62 = test system: UACC-62
NCI-H522 = test system: NCI-H522
HCT-15 = test system: HCT-15
SW-620 = test system: SW-620
KM12 = test system: KM12
COLO 205 = test system: COLO 205
MDA-MB-231 = test system: MDA-MB-231
SF-268 = test system: SF-268
T47D = test system: T47D
SF-295 = test system: SF-295
NCI-H23 = test system: NCI-H23
MDA-MB-435 = test system: MDA-MB-435
ACHN = test system: ACHN
OVCAR-8 = test system: OVCAR-8
NCI/ADR-RES = test system: NCI/ADR-RES
HOP-92 = test system: HOP-92
CAKI-1 = test system: CAKI-1
MDA-N = test system: MDA-N
OVCAR-5 = test system: OVCAR-5
SNB-75 = test system: SNB-75
SK-MEL-28 = test system: SK-MEL-28
RPMI-8226 = test system: RPMI-8226
EKVX = test system: EKVX
SNB-19 = test system: SNB-19
NCI-H460 = test system: NCI-H460
HOP-62 = test system: HOP-62
LOX IMVI = test system: LOX IMVI
OVCAR-3 = test system: OVCAR-3
SN12C = test system: SN12C
IGROV-1 = test system: IGROV-1
CCRF-CEM = test system: CCRF-CEM
M14 = test system: M14
786-0 = test system: 786-0
Malme-3M = test system: Malme-3M
UO-31 = test system: UO-31
HL-60 = test system: HL-60
SF-539 = test system: SF-539
K562 = test system: K562
BT-549 = test system: BT-549
HCT-116 = test system: HCT-116
DU-145 = test system: DU-145
OVCAR-4 = test system: OVCAR-4
A498 = test system: A498
RXF 393 = test system: RXF 393

Measured: GI50

COc1ccc(N2CCN(c3ccc4c(c3)NCC(=O)N4)CC2)cc1
49.5 µM: HCT-15
inactive: NCI-H226 > 100 µM | HCC 2998 > 100 µM | SK-MEL-5 42.8 µM | U-251 25.6 µM | SK-MEL-2 37.3 µM | MOLT-4 60.7 µM | TK-10 41.8 µM | UACC-257 95.5 µM | MCF7 > 100 µM | HT-29 > 100 µM | SR 9.75 µM | A549 66.2 µM | SK-OV-3 91.6 µM | PC-3 36.2 µM | Hs-578T 25.3 µM | UACC-62 25.3 µM | NCI-H522 14.6 µM | SW-620 61.5 µM | KM12 21.3 µM | COLO 205 43 µM | MDA-MB-231 34.4 µM | SF-268 74.1 µM | T47D 15.4 µM | SF-295 69.2 µM | NCI-H23 60.7 µM | MDA-MB-435 > 100 µM | ACHN 32.3 µM | OVCAR-8 26.7 µM | NCI/ADR-RES 21.9 µM | HOP-92 23.5 µM | CAKI-1 64.4 µM | MDA-N > 100 µM | OVCAR-5 54.7 µM | SNB-75 26.9 µM | SK-MEL-28 > 100 µM | RPMI-8226 21.4 µM | EKVX 39.2 µM | SNB-19 59.4 µM | NCI-H460 > 100 µM | HOP-62 > 100 µM | LOX IMVI 41.4 µM | OVCAR-3 28.8 µM | SN12C 70.6 µM | IGROV-1 45.8 µM | CCRF-CEM 29.7 µM | M14 52.5 µM | 786-0 32.2 µM | Malme-3M 23.1 µM | UO-31 26.9 µM | HL-60 17.1 µM | SF-539 23.6 µM | K562 28.8 µM | BT-549 34 µM | HCT-116 42.5 µM | DU-145 > 100 µM | OVCAR-4 32.1 µM

CC[C@H](C)C1=C(O)[N@+]2([O-])Oc3ccc(-c4c(O)c(O)c(-c5ccc(OC(C)=O)cc5)c(OC(C)=O)c4OC(C)=O)cc3O[C@]2([C@@H](C)CC)C(=O)N1O
inactive: HCC 2998 11.7 µM | SK-MEL-5 20 µM | U-251 18.6 µM | SK-MEL-2 > 50 µM | MOLT-4 12.7 µM | TK-10 25.5 µM | UACC-257 > 50 µM | MCF7 24.2 µM | HT-29 25.3 µM | SR 12.5 µM | A549 16.3 µM | SK-OV-3 15.4 µM | PC-3 34 µM | Hs-578T 39.2 µM | UACC-62 15 µM | NCI-H522 8.43 µM | SW-620 10.7 µM | KM12 29.9 µM | COLO 205 16.3 µM | MDA-MB-231 21.9 µM | SF-268 33.3 µM | T47D 21.7 µM | A498 12.9 µM | SF-295 21.6 µM | NCI-H23 > 50 µM | MDA-MB-435 27.9 µM | ACHN 26.3 µM | OVCAR-8 24.5 µM | NCI/ADR-RES 12.9 µM | HOP-92 11.6 µM | CAKI-1 34.4 µM | MDA-N 34 µM | OVCAR-5 47.1 µM | SK-MEL-28 33 µM | RPMI-8226 12.8 µM | EKVX > 50 µM | RXF 393 > 50 µM | SNB-19 45.3 µM | NCI-H460 21.5 µM | HOP-62 32 µM | LOX IMVI 12.9 µM | OVCAR-3 16.4 µM | SN12C 17.2 µM | IGROV-1 8.85 µM | CCRF-CEM 10.3 µM | M14 27.6 µM | 786-0 21.4 µM | Malme-3M 17.1 µM | UO-31 > 50 µM | HL-60 15.2 µM | SF-539 13.1 µM | K562 12.3 µM | BT-549 32.7 µM | HCT-116 9.86 µM | DU-145 > 50 µM | OVCAR-4 8.79 µM
19.7 µM: HCT-15
